# Where “and” joins values, the source holds several entries; their conditions need not be identical. Identical values can stand only once.
# What was measured:
# [1] = system: A549 human lung carcinoma cells; assay: Control for the activity of Photofrin® in the absence of irradiation (+D, −L), viability relative to cell control; format: cell-based
# Procedure: The plate is covered with a black lid and placed in the incubator for four hours to allow absorption of the drug by the cells. The plate is then removed from the incubator, the drug is aspirated, the wells are washed with Dulbecco's phosphate buffered saline (DPBS) and fresh, pre-warmed medium is added to the wells. The columns of wells not to be irradiated are covered with foil strips, the black lid is exchanged for a clear lid, and the plate is then moved to the irradiation template beneath the light beam and irradiated for ten minutes, for a total of 3.3 joules. The plate is returned to the incubator and assessed for viability using XTT after 24 hours. The wells covered with foil strips are important controls for the activity of Photofrin® in the absence of irradiation and the effect of light on the cells in the absence of drug.
# The optical absorbance of the wells in column 1 (high drug concentration, no cells) is evaluated for absorption at 450 nm to ensure that the drug is not interfering with the XTT assay. The percent viability of each of the wells in columns 2-9 and 11 is calculated relative to the mean value of column 10 (cell control, no drug, no light). For each dose response obtained, a four parameter logistic (4PL) nonlinear regression analysis is performed of the percent viability versus the log-Photofrin® concentration. The point of inflection of the regression curve (C value) is defined as the EC50 and used in the calculation of relative potency. Curve fitting and calculation of the EC50 is performed with Softmax v5.4.2 (Molecular Devices, Inc.) or Prism v.5.04 (GraphPad, Software Inc.) software. The mean percent viability of columns 9 and 11 is also calculated.
# Critical aspects of the system suitability will include the acceptable performance of the assay controls. The expectation is that the viability of cells receiving no drug but with light (−D, +L) and cells receiving a high concentration of drug but no light (+D, −L) should approximate the viability of the cell control not receiving drug or light (CC). The percent viability of all samples is based on the CC, which is calculated set at 1.00 and is not included in the Table.
# A549 cells = assay: Homogeneity of irradiation: every well of an A549 plate treated equally with Photofrin®; format: cell-based, human; conditions: Photofrin® at 1.5 μg/mL; wells in the middle of the plate; relative to a second plate of cells without drug; before lengthening the light path from 54 cm to 95.5 cm
# From the text: The Xenon arc lamp produces a bright, broad wavelength irradiance beam that when collimated still retains a bright center. This lack of homogeneity in the intensity of the light beam has to be minimized in order to achieve even irradiation over the area of the 96-well plate. For this purpose, two plano-convex lenses are introduced into the light path to approximate a Kohler illumination (FIG. 1). After an initial dosing ranging study of Photofrin® (data not shown), each well of an assay plate containing A549 cells is treated equally with Photofrin® at 1.5 μg/mL to assess homogeneity of the irradiation. For this experiment, the percent viability is calculated relative to a second plate of cells without drug. […] To address the inhomogeneity in irradiance, the distance from the final bandpass filter to the sample is raised approximately 2-fold from 54 cm to 95.5 cm while the first surface of the plano-convex lenses is maintained at 13.6 cm from the 650 nm cut-off filter. By increasing the length of the light path, the center zone of irradiance is broadened to cover the area of the entire plate (FIG. 13). As the light path is lengthened, the overall irradiance is decreased, necessitating the use of a higher Photofrin® concentration.
# [2] = system: A549 human lung carcinoma cells; assay: Photofrin® dose response of irradiated A549 cells with MTT as the endpoint; format: cell-based
# Procedure: XTT and MTT are two types of formazan dyes that are used to measure mitochondrial function as a surrogate for cell viability. A Photofrin® dose response curve is performed with either XTT or MTT as the endpoint. The results obtained with these two endpoints differ by approximately 15%, but each produces consistent values (see Table 2, below). As the potency of an unknown will be determined with respect to a Reference Lot, the absolute EC50 value is not critical. Given that the use of the MTT dye requires an additional solubilization step, XTT is selected for use in this assay.
substance,measurement,setting,value
porfimer sodium [Photofrin®],"+D, −L/CC","[1]; 70 μg/mL drug, no irradiation, ratio to cell control (no drug, no irradiation), Plate 1 (left to right dilution; controls in columns 9-11)",0.994
same,"+D, −L/CC","[1]; 70 μg/mL drug, no irradiation, ratio to cell control, Plate 2 (placement Test, Standard; controls in columns 9-11)",0.926
same,"+D, −L/CC","[1]; 70 μg/mL drug, no irradiation, ratio to cell control, Plate 3 (right to left dilution; controls in columns 9-11)",0.981
same,"+D, −L/CC","[1]; 70 μg/mL drug, no irradiation, ratio to cell control, Plate 4 (left to right dilution; controls in columns 9-11)",0.928
same,"+D, −L/CC","[1]; 70 μg/mL drug, no irradiation, ratio to cell control, Plate 5 (left to right dilution; controls in columns 2-4)",1.00
same,"+D, −L/CC, Mean","[1]; 70 μg/mL drug, no irradiation, ratio to cell control, mean across Plates 1-5 of positional analysis",0.967
same,"+D, −L","[1]; high concentration of drug, no light, viability based on cell control set at 1.00, experiments of Table 1, black plates",1.05 and 0.893 and 1.09
same,"+D, −L","[1]; high concentration of drug, no light, viability based on cell control set at 1.00, experiments of Table 1, clear plates (significant cell killing, excluded from the analysis)",0.012 and 0.019 and 0.024
same,"+D, −L","[1]; high concentration of drug, no light, viability based on cell control set at 1.00, experiments of Table 2, black plates",1.06 and 0.947 and 0.986
same,"+D, −L","[1]; high concentration of drug, no light, viability based on cell control set at 1.00, experiments of Table 4, black plates",0.994 and 0.926 and 0.981 and 0.928 and 1.00
same,"+D, −L","[1]; high concentration of drug, no light, viability based on cell control set at 1.00, experiments of Table 5, black plates",0.999 and 1.02 and 1.00 and 1.29 and 0.973
same,"+D, −L","[1]; high concentration of drug, no light, viability based on cell control set at 1.00, experiments of Table 6, black plates",0.990 and 0.981 and 0.977
same,"+D, −L","[1]; high concentration of drug, no light, viability based on cell control set at 1.00, experiments of Table 7, black plates",0.973 and 1.00
same,"+D, −L","[1]; high concentration of drug, no light, viability based on cell control set at 1.00, experiments of Table 8, black plates",1.02 and 0.992 and 0.995 and 0.959 and 0.985
same,"+D, −L","[1]; high concentration of drug, no light, viability based on cell control set at 1.00, experiments of Table 9, black plates",1.01 and 0.898 and 0.959
same,"+D, −L","[1]; high concentration of drug, no light, viability based on cell control set at 1.00, experiments of Table 10, black plates",1.09 and 1.08 and 0.995
same,"+D, −L","[1]; high concentration of drug, no light, viability based on cell control set at 1.00, experiments of Table 11, black plates",0.980 and 0.973 and 1.02 and 0.956
same,"+D, −L","[1]; high concentration of drug, no light, viability based on cell control set at 1.00, experiments of Table 12, black plates",0.990 and 0.906 and 1.03 and 1.02 and 1.00
same,"+D, −L, Mean","[1]; high concentration of drug, no light, viability based on cell control set at 1.00, mean of all experiments, clear plate values excluded",1.00
same,viability,A549 cells,103%
same,EC50-MTT,"[2]; experiment PIN-009, in µg/mL",8.28 and 8.11
same,"EC50-MTT, Mean","[2]; experiment PIN-009, mean",8.2 µg/mL

# From patent US11726079B2, “Lighting systems and methods of using lighting systems for in vitro potency assay for Photofrin” (Concordia Laboratories, Inc., priority 2012, dated 2023)
